# Results as given in PMC5955599, “The HTLV-1 gp21 fusion peptide inhibits antigen specific T-cell activation in-vitro and in mice” (PLoS Pathogens, 2018).
# Legend:
# [1] = test system: C57BL/6 female mice; assay: MOG35-55-induced experimental autoimmune encephalomyelitis (EAE); assay type: in vivo, mouse
# Experimental: (§1) (A-B) MOG35-55–antigen specific T-cells were activated by irradiated MOG35-55 presenting APCs, in the presence of HTLV FP or HTLV Scr at 10μM. (A) The proliferative responses were assessed by H^3-thymidine incorporation assay, and normalized to the proliferation of non-activated T-cells. The data is presented as mean inhibition of proliferation. n = 12. (B) IFN-γ was measured by ELISA assay. n = 12. (C-D) EAE was induced in C57BL/6 female mice that were treated with a single dose of HTLV FP, HTLV Scr or vehicle. […] (C) Direct clinical measurement of EAE phenotype in a 5-point scale with increased disease symptoms correlating with higher score value. The data is presented as mean EAE clinical score. (D) Mice were weighed the day before EAE induction, and the change (as a percentage) in weight was recorded. The data is presented as mean change from the initial weight. One-way ANOVA was used for statistical analysis. ^a HTLV FP ≠ Vehicle; ^b HTLV FP ≠ Vehicle & HTLV Scr; ^c HTLV FP ≠ HTLV Scr. ^a,b,cP<0.05. (E) Spleenocytes were harvested at 26 DPI and stimulated using MOG35-55. The proliferative responses were assessed by H^3-thymidine incorporation assay and normalized to the proliferation of non-activated T-cells. The data is presented as counts per minute (CPM). n = 7. (F-G) Spleenocytes were harvested at 26 DPI and stimulated using MOG35-55. Media was collected 48 hours following activation and secretion of IFN-γ and IL4 was measured by ELISA assay. […] One-way ANOVA was used for statistical analysis. *P<0.05;**P<0.01;***P<0.001; ns, not significant.
# EAE was induced in 9-week-old wild type and homozygous C57BL/6 female mice (Harlan Laboratories Israel/ Weizmann Institute animal facilities) by injecting a peptide comprising residues 35–55 of mouse myelin oligodendrocyte glycoprotein (MOG35–55; PolyPeptide Laboratories, Strasbourg, France). Mice were injected subcutaneously above the lumbar spinal cord with 100 μl of emulsion containing 200 μg/mouse of the encephalitogenic peptide in complete Freund’s adjuvant (BD-Difco) enriched with 250 μg/mouse of heat-inactivated Mycobacterium tuberculosis (BD-Difco) at 0 days post-induction (DPI). The HTLV FP was dissolved in PBS and added to the emulsion (1mg/kg). Pertussis toxin (Enzo Life Sciences) at a dose of 300 ng per mouse was injected intraperitoneally immediately after the encephalitogenic injection, as well as at […]. EAE disease was scored using a five-point grading with 0 for no clinical disease; 1, tail weakness; 2, paraparesis (incomplete paralysis of one or two hindlimbs); 3, paraplegia (complete paralysis of one or two hindlimbs); 4, paraplegia with forelimb weakness or paralysis; 5, moribund or dead animals. The mice were examined daily.
# EAE was induced in C57BL/6 female mice that were either treated with a single dose of HTLV FP or vehicle. […] (A) Direct clinical measurement of EAE phenotype in a 5-point scale with increased disease symptoms correlating with higher score value. The data is presented as mean EAE clinical score. (B) Mice were weighed the day before EAE induction, and the change (as a percentage) in weight was recorded. The data is presented as mean change from the initial weight. Student’s t-test was used for statistical analysis. *P<0.05; **P<0.01;***P<0.001. (TIF) Click here for additional data file.
# [2] = test system: MOG35-55-reactive T-cells (spleenocytes harvested at 26 DPI); assay: Ex-vivo MOG35-55 re-stimulation of spleenocytes from EAE mice; assay type: in vivo, mouse; settings: mice treated with single dose 1mg/kg
# Experimental: as §1, with “Fig 3 Administration of HTLV FP alleviates MOG35-55-induced EAE. (A-B)” for “(A-B)”
# We then performed an additional EAE experiment in which mice were treated with a single dose of HTLV FP (1mg/kg), HTLV Scr (1mg/kg) or vehicle. […] As disease manifestation was milder compared to the previous experiment, we were able to monitor animals for a longer period of time. […]
# [3] = harvested at 26 DPI, media 48 hours following activation, ELISA, n>8, compared to vehicle and HTLV Scr groups
sequence,measurement,setting,value
"AVPVAVWLVSALAMGAGVAGGITGSMSLASGKS [HTLV FP, gp21 fusion peptide of HTLV-1, MT-2 isolate]",clinical symptoms of a cage of treated mice at DPI 17,"[1]; additional experiment, S5 and S6 Movies",mild clinical symptoms
same,mice exhibiting no clinical manifestation at DPI 17,"[1]; additional experiment, S6 Movie",3 out of 5
same,clinical symptoms of a cage of treated mice at DPI 9,"[1]; initial experiment, S3 Movie",no observed clinical symptoms
same,mice exhibiting mild clinical symptoms at DPI 14,"[1]; initial experiment, S4 Movie, rest with no observed clinical signs",1 out of 5
same,"EAE clinical symptoms, initial experiment","[1]; single dose 1mg/kg added to the MOG35-55/CFA emulsion, vs vehicle, terminated at 14 DPI, 5-point scale",only mild clinical symptoms
same,"EAE clinical signs, additional experiment","[1]; single dose 1mg/kg, HTLV FP, HTLV Scr or vehicle, period 11 to 16 DPI, 5-point scale",only mild clinical symptoms and weight loss
same,"locomotory behavior, initial experiment","[1]; single dose 1mg/kg, S3 and S4 Movies",most of the HTLV FP treated mice exhibited normal locomotory behavior
same,"locomotory behavior, additional experiment","[1]; single dose 1mg/kg, S5 and S6 Movies",better locomotory behavior than the HTLV Scr treated mice
same,"weight change, initial experiment","[1]; single dose 1mg/kg, change from initial weight",only by minor weight fluctuations
same,"weight loss, additional experiment","[1]; single dose 1mg/kg, period 11 to 16 DPI",only mild clinical symptoms and weight loss
same,"first observation of clinical symptoms, initial experiment","[1]; single dose 1mg/kg, vehicle-treated mice first observed at 8 DPI",11 DPI
same,IFN-γ secretion of spleenocytes stimulated with MOG35-55,[2]; [3],significantly lower IFN-γ secretion
same,IL4 secretion of spleenocytes stimulated with MOG35-55,[2]; [3],significantly higher IL4 secretion
same,T-cell proliferative response of spleenocytes stimulated with MOG35-55,"[2]; spleens harvested at 26 DPI, H3-thymidine incorporation, CPM, n = 7",significantly lower in HTLV FP treated spleenocytes compared to HTLV Scr treated spleenocytes
